{
  "source": "paper PMC2528936",
  "about": "“Snake Cathelicidin from Bungarus fasciatus Is a Potent Peptide Antibiotics” (PLoS ONE, 2008)",
  "key": {"Bacillus subtilis": {"test_system": "Bacillus subtilis", "assay": "microbe, parasite or virus in culture", "protocol": "(§1) Antimicrobial activities of cathelicidin-BF and cathelicidin-BF15 ([…]) were tested according to our previous methods [39]–[42]. […] The details were provided in the Materials and Methods S1.\n(§2) Standard and clinically isolated microorganism strains were used for antimicrobial assays. Bacteria were first grown in LB (Luria-Bertani) broth to an OD600 nm of 0.8. A 10 µl aliquot of the bacteria was then taken and added to 8 ml of fresh LB broth with 0.7% agar and poured over a 90 mm Petri dish containing 25 ml of 1.5% agar in LB broth. After the top agar hardened, a 20 µl aliquot of the test sample filtered on a 0.22 µm Millipore filter was dropped onto the surface of the top agar and completely dried before being incubated overnight at 37 °C. If the sample examined had antimicrobial activity, a clear zone would be formed on the surface of the top agar representing inhibition of bacterial growth. Minimal inhibitory concentration (MIC) was determined in liquid LB medium by incubating the bacteria in LB broth with variable amounts of the sample tested. The MIC at which no visible growth occurred was recorded. In the assays of anti-fungi activity, for strains of Aspergillus terreus, A. niculans, and Chaetomium globosum, the fungal spore concentration was first counted under a microscope. The fungi with an initial concentration of 10^5 spores/ml were cultured with variable amounts of the sample tested in yeast extract-peptone-dextrose broth."}, "[1]": {"test_system": "Staphylococcus aureus ATCC2592", "assay": "microbe, parasite or virus in culture", "conditions": "ATCC2592", "protocol": "as §1, §2"}, "[2]": {"test_system": "Pseudomonas aeruginosa ATCC27853", "assay": "microbe, parasite or virus in culture", "conditions": "ATCC27853", "protocol": "as §1, §2"}, "[3]": {"test_system": "Candida albicans ATCC2002", "assay": "microbe, parasite or virus in culture", "protocol": "as §1, §2"}, "[4]": {"test_system": "Escherichia coliATCC25922", "assay": "microbe, parasite or virus in culture", "conditions": "ATCC25922", "protocol": "as §1, §2"}, "E. coli 08A866(IS, DR)": {"test_system": "E. coli 08A866(IS, DR)", "conditions": "clinically isolated strain, drug resistance for ampicillin and benzylpenicillin; liquid LB broth; mean of three independent experiments in duplicates; ND = no detectable activity", "protocol": "as §1, §2"}, "E. coli 08A866": {"test_system": "E. coli 08A866", "type": "cell-based, Escherichia coli", "conditions": "for Amount of bacteria co-cultured with sample: Table 4, LB, 35 °C", "protocol": "The details were provided in the Materials and Methods S1.\nFresh overnight colonies were added to a total of 20 ml LB, and incubated on a 35 °C water bath. After one hour of incubation, 1 ml broth from each flask was replaced with the test solution. The colony counting was performed at different time after addition of the test solutions as described by Mygind et al."}},
  "note": "Read-outs that look alike come from different tables or passages of the source. Where a SMILES comes first, the peptide text is derived from it. Bridges are numbered along the chain shown (N, C = ends).",
  "data": [
    {"smiles": "CC[C@H](C)[C@H](NC(=O)[C@H](C)NC(=O)[C@@H](NC(=O)[C@@H]1CCCN1C(=O)[C@H](CC(C)C)NC(=O)[C@@H](NC(=O)[C@H](CO)NC(=O)[C@@H](NC(=O)[C@H](C)NC(=O)[C@@H](NC(=O)[C@H](CCCCN)NC(=O)[C@H](CC(C)C)NC(=O)[C@@H](NC(=O)[C@@H]1CCCN1C(=O)CNC(=O)[C@@H](NC(=O)[C@@H](N)Cc1ccccc1)[C@@H](C)CC)C(C)C)[C@@H](C)CC)[C@@H](C)O)[C@@H](C)CC)[C@@H](C)O)C(=O)N[C@H]1CSSC[C@@H](C(=O)O)NC(=O)[C@H](CCCCN)NC(=O)[C@H](CCCCN)NC(=O)[C@H](Cc2ccccc2)NC(=O)[C@H]([C@@H](C)CC)NC(=O)[C@H](CCCCN)NC1=O", "note": "[HDW] (H-FIGPVLKIATSILPTAICKIFKKC-OH; disulfide 18-24 (inferred); N-terminus and C-terminus assumed)", "values": [
      {"measurement": "MIC", "setting": "Bacillus subtilis", "value": 2.3, "unit": "µg/mL"},
      {"measurement": "MIC", "setting": "[1]", "value": 1.2, "unit": "µg/mL"},
      {"measurement": "MIC", "setting": "[2]", "value": 37.5, "unit": "µg/mL"},
      {"measurement": "MIC", "setting": "[3]", "value": 2.3, "unit": "µg/mL"},
      {"measurement": "MIC", "setting": "[4]", "value": 18.7, "unit": "µg/mL"},
      {"measurement": "MIC", "setting": "E. coli 08A866(IS, DR)", "value": 18.7, "unit": "µg/mL"},
      {"measurement": "Amount of bacteria co-cultured with sample", "setting": "E. coli 08A866; sample at 1 times MIC, time 0.1 min", "value": 49, "unit": "CFU"},
      {"measurement": "Amount of bacteria co-cultured with sample", "setting": "E. coli 08A866; sample at 1 times MIC, time 1 min", "value": 14.7, "unit": "CFU"},
      {"measurement": "Amount of bacteria co-cultured with sample", "setting": "E. coli 08A866; sample at 1 times MIC, time 10 min", "value": 0, "unit": "CFU"},
      {"measurement": "Amount of bacteria co-cultured with sample", "setting": "E. coli 08A866; sample at 1 times MIC, time 30 min", "value": 0, "unit": "CFU"},
      {"measurement": "Amount of bacteria co-cultured with sample", "setting": "E. coli 08A866; sample at 10 times MIC, time 0.1 min", "value": 38, "unit": "CFU"},
      {"measurement": "Amount of bacteria co-cultured with sample", "setting": "E. coli 08A866; sample at 10 times MIC, time 1 min", "value": 3.7, "unit": "CFU"},
      {"measurement": "Amount of bacteria co-cultured with sample", "setting": "E. coli 08A866; sample at 10 times MIC, time 10 min", "value": 0, "unit": "CFU"},
      {"measurement": "Amount of bacteria co-cultured with sample", "setting": "E. coli 08A866; sample at 10 times MIC, time 30 min", "value": 0, "unit": "CFU"},
      {"measurement": "time to clean E. coli", "setting": "E. coli 08A866; killing kinetics during 30 min (Table 4), comparison of cathelicidin-BF and HDW", "value": "several minutes"}
    ]}
  ]
}
